Test system: NmGT8 protein
Assay: Enzyme reaction of flavone substrates with His-tag purified NmGT8 protein solution and UDP-glucose (HPLC)
Format: biochemical, Nemophila menziesii
Conditions: NmGT8 protein solution, UDP-glucose, 1 mM substrate stock, 20 minutes at 30° C., HPLC 330 nm
Method: The transformed E. coli were cultured at 37° C. to an OD600 value of 0.5 in 8 ml of the prepared culture liquid (approx. 4 hours). This E. coli culture liquid was then used as a pre-culture liquid and added to 200 ml of culture liquid followed by final culturing overnight at 25° C.
Following final culturing overnight, the E. coli culture liquid was centrifuged (1000×g, 4° C., 10 minutes), the collected cells were suspended in 20 ml of extract (composition: buffer (KCl: 300 mM, KH2PO4: 50 mM, imidazole: 5 mm) (pH 8.0), amidinophenylmethanesulfonyl fluoride hydrochloride (APMSF): 10 μM), and after crushing the E. coli by ultrasonic treatment, the crushed cells were centrifuged (1400×g, 4° C., 20 minutes) followed by recovery of the supernatant. This supernatant was passed through a 0.45 μm filter and purified by His-Tag protein purification using Profinia (Bio-Rad Laboratories, Inc.) in accordance with the protocol recommended by the manufacturer. The resulting purified protein solution was centrifuged (7500×g, 4° C., 15 minutes) using centrifugal filters (Ultracel-10K, Amicon Corp.) and the concentrated protein solution was designated as “NmGT8 Protein Solution”. The Avanti HP-26XP (rotor: JA-2) (Beckman Coulter Inc.) was used for centrifugation.
A reaction liquid prepared by mixing 10 μl of protein solution, 2 μl of 50 mM UDP-glucose, 10 μl of 1 M Tris HCl (pH 7.5) and 5 μl of 1 mM apigenin on ice and bringing to a volume of 100 μl with water was held for 20 minutes at 30° C. Subsequently, 100 μl of stop buffer (90% aqueous acetonitrile solution containing 0.1% TFA) were added to stop the reaction followed by analyzing the reaction liquid by high-performance liquid chromatography (Prominence (Shimadzu Corp.)). The Shimadzu PDA SPD-M10AVP was used for the detector and flavone was detected at 330 nm. The Shim-Pack ODS 150 mm×4.6 mm column (Shimadzu Corp.) was used for the column. A Solution A (0.1% aqueous TFA solution) and a Solution B (90% aqueous methanol solution containing 0.1% TFA) were used for elution. Elution was carried out using a linear concentration gradient from an 8:2 mixture of the two solutions to a 3:7 mixture of the two solutions over the course of 10 minutes followed by a 3:7 mixture for 6 minutes. The flow rate was 0.6 ml/min.

## O=c1cc(-c2ccc(O)cc2)oc2cc(O[C@@H]3O[C@H](CO)[C@@H](O)[C@H](O)[C@H]3O)cc(O)c12 [apigenin 7-glucoside]
  glycosylation product biosynthesized from the substrate: apigenin 4′,7-diglucoside was not biosynthesized

## O=c1cc(-c2ccc(O)cc2)oc2cc(O)cc(O)c12 [apigenin, 4′,5,7-trihydroxyflavone]
  glycosylation product biosynthesized from the substrate: flavone demonstrating the same retention time and absorption maximum as purified apigenin 4′-glucoside was biosynthesized

## O=c1cc(-c2ccc(O)c(O)c2)oc2cc(O[C@@H]3O[C@H](CO)[C@@H](O)[C@H](O)[C@H]3O)cc(O)c12 [luteolin 7-glucoside]
  glycosylation product biosynthesized from the substrate: luteolin 4′,7-diglucoside was also not biosynthesized

## O=c1cc(-c2ccc(O)c(O)c2)oc2cc(O)cc(O)c12 [luteolin, 3′,4′,5,7-tetrahydroxyflavone]
  glycosylation product biosynthesized from the substrate: Luteolin 4′-glucoside was biosynthesized

Source: patent US10059956B2, “Glycosyltransferase gene and use thereof” (SUNTORY HOLDINGS LIMITED, priority 2012, dated 2018)
